Results as given in publication PMC6118079 (Iranian Journal of Basic Medical Sciences, 2018).

Test system: krait snake venom acetylcholinesterase (AChE)
Type: biochemical, Bungarus sindanus
Conditions: no extract (control); 0.5-1 mM substrate, 50 mM phosphate pH 7.4, 37 °C; crude venom as enzyme source

`CC(=O)SCC[N+](C)(C)C` [acetylthiocholine] showed a Km of 160 µM.
